Where two headings read alike, the source gives them in different places.
Assays:
[1] = Blood THC concentration versus time after smoking; type: in vivo; settings: about an hour after smoking cessation
Method: (§1) The high lipid solubility of cannabinoids results in their persisting in the body for long periods of time. Even after a single administration of THC, detectable levels of THC can be found in the body for weeks or longer. […] There are three accepted laboratory methods for detecting THC in individuals that have smoked or ingested marijuana: (1) urine testing, for which passive inhalation up to 22 minutes for infrequent users can be detected for 7-10 days after inhalation, with longer periods for heavy users, (2) hair testing, with THC being detectible for up to 90 days after inhalation, and (3) blood and oral fluid testing, for which THC can be detected for 2-24 hours after use in most cases, but for up to 2 weeks in some heavy users. A detailed investigation of the relationship between time after marijuana smoking and relative subject impairment provides an estimate of the relative degree of impairment (defined under Standardized Field Sobriety Tests) as a function of time after smoking various smoke concentrations of THC is shown in Table 1.

subjects [2] = settings: cited from earlier work
subjects [3] = experiment: Percent of impaired subjects by Standardized Field Sobriety Tests after smoking; type: in vivo; settings: about an hour after smoking cessation
Method: as §1

[4] = cited from earlier work
[5] = cited from earlier work; remark: listed apart in the source
[6] = dose 1.74% THC smoked, Time 1 (0-5 mins) after smoking
[7] = dose 1.74% THC smoked, Time 2 (50-55 mins) after smoking
[8] = dose 1.74% THC smoked, Time 3 (100-105 mins) after smoking
[9] = dose 2.93% THC smoked, Time 1 (0-5 mins) after smoking
[10] = dose 2.93% THC smoked, Time 2 (50-55 mins) after smoking
[11] = dose 2.93% THC smoked, Time 3 (100-105 mins) after smoking

CCCCCc1cc(O)c2c(c1)OC(C)(C)[C@@H]1CCC(C)=C[C@@H]21 [THC, delta-9-tetrahydrocannabinol]
blood content of THC relative to its initial value [1]: ~10%
% impaired (subjects [2]; [6]): 23%
% impaired (subjects [2]; [7]): 23%
% impaired (subjects [2]; [8]): 15%
% impaired (subjects [2]; [9]): 46%
% impaired (subjects [2]; [10]): 41%
% impaired (subjects [2]; [11]): 28%
relative degree of impairment relative to its initial value (subjects [3]): about half
time THC can be detected after use, blood and oral fluid testing ([4]; most cases): 2 to 24 h
time THC can be detected after use, blood and oral fluid testing ([4]; some heavy users): up to 2 weeks
time THC is detectible after inhalation, hair testing ([4]; hair): up to 90 days
time THC can be detected after inhalation, urine testing ([4]; urine, infrequent users, passive inhalation up to 22 minutes): 7 to 10 days
Blood THC [5, 6]: 55.5 ng/mL
Blood THC [5, 7]: 6.8 ng/mL
Blood THC [5, 8]: 3.7 ng/mL
Blood THC [5, 9]: 70.6 ng/mL
Blood THC [5, 10]: 6.2 ng/mL
Blood THC [5, 11]: 3.2 ng/mL

From US12247914B2, “Virus sensing in exhaled breath by infrared spectroscopy” (Vox Biomedical LLC, priority 2017, dated 2025)
